From US20240425630A1, “POLYMER DISPERSION COMPOSITION” (Dow Global Technologies LLC, priority 2021, published 2024)
Read-outs that look alike come from different tables or passages of the source.

Columns and labels:
[1] = cited from earlier work
[2] = Surfactant pKaH by acid-base titration
Source text: Surfactant pKaH values were either collected from literature sources or measured according to the method described herein. The surfactant (1 g) was mixed with deionized water (60 g). Next, preparation steps were taken to convert all of the surfactants to their respective salt forms. Surfactants which are already in fully neutralized salt form (e.g., Geropon CG 3S, Geropon LG 3S, and Aminosyl SLG) were titrated “as is” (i.e., as received from the supplier). Surfactants in acid form were mixed with enough aqueous 0.5 M KOH (potassium hydroxide) to increase the solution pH to a pH of 10. Sodium lauroyl lactylate (Capmul S12L, 1 g) was mixed with 1.4 g TERGITOL™15-S-40 (70%), followed by enough aqueous 0.5 M KOH (potassium hydroxide) to increase the solution pH to a pH of 10. After the respective preparation steps above, the surfactant solutions were titrated with 0.5 M HCl to pH 2 while recording the pH and the amount of 0.5 M HCl added using a titrator, Mettler Toledo T70.

[3] = literature data (footnotes of Table II)

Molecule	pKaH [1, 3]	also measured
CCCCCCCCCC(=O)O [Capric acid (C10), Capric acid]	7.1-7.3	
CCCCCCCCCCCC(=O)O [Lauric acid (C12), Lauric acid]	7.5	
CCCCCCCCCCCCCC(=O)O [Myristic acid (C14), Myristic acid]	8.1-8.2	
CCCCCCCCCCCC(=O)N(C)CC(=O)O [N-Lauroyl sarcosine]		pKaH [2]: 5.3
CCCCCCCC/C=C\CCCCCCCC(=O)O [Oleic acid (C18:1 cis-9), Oleic acid]	9.85	
CCCCCCCCCCCCCCCC(=O)O [Palmitic acid (C16), Palmitic acid]	8.6-8.8	
CCCCCCCCCCCC(=O)OC(C)C(=O)OC(C)C(=O)[O-].[Na+] (stereo not shown) [Sodium lauroyl lactylate]		pKaH ([2]; titrated with 0.5 M HCl, pH at mid-point to the equivalence point): 5.25
CCCCCCCCCCCCCCCCCC(=O)O [Stearic acid (C18), Stearic acid]	10.15	
CCCCCCCC(=O)O [n-octanoic acid]	6.3-6.5	
sodium dodecylbenzenesulfonate		pKaH ([1]; stated in the discussion, no source given): less than 2.6
